≈ marks a conversion by molar mass, not a printed value. Marks after values point to notes of the source that are not given here. Non-standard residues stand in square brackets, D forms with d. Residues, ends and D or L forms follow the SMILES beside them. d2Nal = N[C@H](Cc1ccc2ccccc2c1)C(=O)O
How the values were obtained:
[1] = test system: Staphylococcus aureus (NRS 384); assay: microbe, parasite or virus in culture; type: cell-based; settings: NRS 384
Outline: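 MICs were read against S. aureus strain NRS 384 using twofold serial dilution by CLSI microdilution rules. Levofloxacin and Cbf-K16 were the reference controls, and the test was repeated 5 times in parallel.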

[2] = test system: Methicillin-resistant Staphylococcus aureus (MRSA); type: cell-based; settings: Methicillin-resistant
Outline: (§1)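 CLSI twofold serial microdilution; MIC read per drug-resistant clinical strain; n = 5 parallel replicates.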

[3] = test system: carbapenem-resistant Escherichia coli (CREC); type: cell-based; settings: carbapenem-resistant (CREC)
Outline: as §1

[4] = test system: carbapenem-resistant Klebsiella pneumoniae (CRKP); type: cell-based; settings: carbapenem-resistant (CRKP)
Outline: as §1

[5] = test system: carbapenem-resistant Pseudomonas aeruginosa (CRPA); type: cell-based; settings: carbapenem-resistant (CRPA)
Outline: as §1

[6] = test system: vancomycin-resistant Enterococcus (VRE); type: cell-based
Outline: as §1

[7] = test system: Pseudomonas aeruginosa ATCC 27853; assay: Injectable formulations on mice infected with peritonitis; type: in vivo, ICR mice; settings: twice a day for 3 days; for Number of mice that died on each day after infection: day 1 / Number of mice that died on each day after infection: day 2 / Number of mice that died on each day after infection: day 3 / Number of mice that died on each day after infection: day 4 / Number of mice that died on each day after infection: day 5 / Average survival times (Days): n = 10; for Average survival times (Days): observed for 14 d; for survival time of mice infected with Pseudomonas aeruginosa: tail vein, observed 14 d
Outline: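 Survival readout: deaths and survival time tracked for 14 d. Treatment was tail-vein injection by body weight, twice a day for 3 consecutive days, starting right after intraperitoneal challenge with 0.2 mL of 1×10^9 CFU/mL P. aeruginosa ATCC 27853 in male and female ICR mice.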

`CC(=O)N[C@H](CCCCN)C(=O)N[C@H](CCCCN)C(=O)N[C@H](CC(C)C)C(=O)N[C@H](CC(C)C)C(=O)N[C@H](Cc1ccc2ccccc2c1)C(=O)N[C@H](CCCCN)C(=O)N[C@H](CC(C)C)C(=O)N[C@H](CCCCN)C(=O)N[C@H](Cc1ccc2ccccc2c1)C(=O)N[C@H](CCCCN)C(=O)N[C@H](CCCCN)C(N)=O` [LV-17] (Ac-[dK][dK][dL][dL][d2Nal][dK][dL][dK][d2Nal][dK][dK]-NH2) was tested, and the “MIC against Staphylococcus aureus (NRS 384)” value (“MIC … (NRS 384)” below) [1] was 1 µg/mL (≈ 0.64 µM), the “MIC MRSA” value [2] was 8 µg/mL (≈ 5.12 µM) and the “MIC CREC” value [3] was 4 µg/mL (≈ 2.56 µM). The “MIC CRKP” value [4] was 4 µg/mL (≈ 2.56 µM), the “MIC CRPA” value [5] was 4 µg/mL (≈ 2.56 µM) and the “MIC VRE” value [6] was 8 µg/mL (≈ 5.12 µM). For the same compound, the “Number of mice that died on each day after infection: day 1” value (from here on “Number of mice that died … day 1”) ([7]; 0.2 mg/kg via tail vein) was 1 Mouse, the “Number of mice that died on each day after infection: day 2” value (shortened to “Number of mice that died … day 2”) ([7]; 0.2 mg/kg via tail vein) was 2 Mouse and the “Number of mice that died on each day after infection: day 3” value (“Number of mice that died … day 3” below) ([7]; 0.2 mg/kg via tail vein) was 1 Mouse. For the same compound, the “Number of mice that died on each day after infection: day 4” value (from here on “Number of mice that died … day 4”) ([7]; 0.2 mg/kg via tail vein) was 1 Mouse, the “Number of mice that died on each day after infection: day 5” value (shortened to “Number of mice that died … day 5”) ([7]; 0.2 mg/kg via tail vein) was 1 Mouse and the “Average survival times (Days)” value ([7]; 0.2 mg/kg via tail vein) was 7.3** Days. For the same compound, the “Number of mice that died … day 1” value ([7]; 1 mg/kg via tail vein) was 0 Mouse, the “Number of mice that died … day 2” value ([7]; 1 mg/kg via tail vein) was 2 Mouse and the “Number of mice that died … day 3” value ([7]; 1 mg/kg via tail vein) was 0 Mouse. The “Number of mice that died … day 4” value ([7]; 1 mg/kg via tail vein) was 1 Mouse, the “Number of mice that died … day 5” value ([7]; 1 mg/kg via tail vein) was 0 Mouse and the “Average survival times (Days)” value ([7]; 1 mg/kg via tail vein) was 10.6**** Days. The “Number of mice that died … day 1” value ([7]; 5 mg/kg via tail vein) was 0 Mouse, the “Number of mice that died … day 2” value ([7]; 5 mg/kg via tail vein) was 2 Mouse and the “Number of mice that died … day 3” value ([7]; 5 mg/kg via tail vein) was 1 Mouse. For the same compound, the “Number of mice that died … day 4” value ([7]; 5 mg/kg via tail vein) was 1 Mouse, the “Number of mice that died … day 5” value ([7]; 5 mg/kg via tail vein) was 0 Mouse and the “Average survival times (Days)” value ([7]; 5 mg/kg via tail vein) was 9.5*** Days. For the same compound, the “survival time of mice infected with Pseudomonas aeruginosa” value (“survival time of mice infected” below) [7] was “superior to those of the Levofloxacin group”.
`CC(=O)N[C@H](CCCNC(=N)N)C(=O)N[C@H](CCCCN)C(=O)N[C@H](CC(C)C)C(=O)N[C@H](CC(C)C)C(=O)N[C@H](Cc1ccc2ccccc2c1)C(=O)N[C@H](CCCCN)C(=O)N[C@H](CC(C)C)C(=O)N[C@H](CCCCN)C(=O)N[C@H](Cc1ccc2ccccc2c1)C(=O)N[C@H](CCCCN)C(=O)N[C@H](CCCNC(=N)N)C(N)=O` [LV-18] (Ac-[dR][dK][dL][dL][d2Nal][dK][dL][dK][d2Nal][dK][dR]-NH2) was tested, and the “MIC … (NRS 384)” value [1] was 1 µg/mL (≈ 0.618 µM), the “MIC MRSA” value [2] was 4 µg/mL (≈ 2.47 µM) and the “MIC CREC” value [3] was 2 µg/mL (≈ 1.24 µM). For the same compound, the “MIC CRKP” value [4] was 2 µg/mL (≈ 1.24 µM), the “MIC CRPA” value [5] was 4 µg/mL (≈ 2.47 µM) and the “MIC VRE” value [6] was 8 µg/mL (≈ 4.94 µM). For the same compound, the “Number of mice that died … day 1” value ([7]; 0.2 mg/kg via tail vein) was 2 Mouse, the “Number of mice that died … day 2” value ([7]; 0.2 mg/kg via tail vein) was 1 Mouse and the “Number of mice that died … day 3” value ([7]; 0.2 mg/kg via tail vein) was 1 Mouse. For the same compound, the “Number of mice that died … day 4” value ([7]; 0.2 mg/kg via tail vein) was 1 Mouse, the “Number of mice that died … day 5” value ([7]; 0.2 mg/kg via tail vein) was 1 Mouse and the “Average survival times (Days)” value ([7]; 0.2 mg/kg via tail vein) was 7.2** Days. For the same compound, the “Number of mice that died … day 1” value ([7]; 1 mg/kg via tail vein) was 0 Mouse, the “Number of mice that died … day 2” value ([7]; 1 mg/kg via tail vein) was 1 Mouse and the “Number of mice that died … day 3” value ([7]; 1 mg/kg via tail vein) was 0 Mouse. The “Number of mice that died … day 4” value ([7]; 1 mg/kg via tail vein) was 1 Mouse, the “Number of mice that died … day 5” value ([7]; 1 mg/kg via tail vein) was 1 Mouse and the “Average survival times (Days)” value ([7]; 1 mg/kg via tail vein) was 10.9**** Days. For the same compound, the “Number of mice that died … day 1” value ([7]; 5 mg/kg via tail vein) was 0 Mouse, the “Number of mice that died … day 2” value ([7]; 5 mg/kg via tail vein) was 2 Mouse and the “Number of mice that died … day 3” value ([7]; 5 mg/kg via tail vein) was 1 Mouse. For the same compound, the “Number of mice that died … day 4” value ([7]; 5 mg/kg via tail vein) was 0 Mouse, the “Number of mice that died … day 5” value ([7]; 5 mg/kg via tail vein) was 0 Mouse and the “Average survival times (Days)” value ([7]; 5 mg/kg via tail vein) was 10.5**** Days. The “survival time of mice infected” value [7] was “superior to those of the Levofloxacin group”.
`CC(=O)N[C@H](CCCCN)C(=O)N[C@H](CCCCN)C(=O)N[C@H](CC(C)C)C(=O)N[C@H](CC(C)C)C(=O)N[C@H](Cc1ccc2ccccc2c1)C(=O)N[C@H](CCCNC(=N)N)C(=O)N[C@H](CC(C)C)C(=O)N[C@H](CCCCN)C(=O)N[C@H](Cc1ccc2ccccc2c1)C(=O)N[C@H](CCCNC(=N)N)C(=O)N[C@H](CCCCN)C(N)=O` [LV-19] (Ac-[dK][dK][dL][dL][d2Nal][dR][dL][dK][d2Nal][dR][dK]-NH2) was tested, and the “MIC … (NRS 384)” value [1] was 1 µg/mL (≈ 0.618 µM), the “MIC MRSA” value [2] was 4 µg/mL (≈ 2.47 µM) and the “MIC CREC” value [3] was 8 µg/mL (≈ 4.94 µM). The “MIC CRKP” value [4] was 4 µg/mL (≈ 2.47 µM), the “MIC CRPA” value [5] was 2 µg/mL (≈ 1.24 µM) and the “MIC VRE” value [6] was 4 µg/mL (≈ 2.47 µM). For the same compound, the “Number of mice that died … day 1” value ([7]; 0.2 mg/kg via tail vein) was 3 Mouse, the “Number of mice that died … day 2” value ([7]; 0.2 mg/kg via tail vein) was 2 Mouse and the “Number of mice that died … day 3” value ([7]; 0.2 mg/kg via tail vein) was 0 Mouse. For the same compound, the “Number of mice that died … day 4” value ([7]; 0.2 mg/kg via tail vein) was 0 Mouse, the “Number of mice that died … day 5” value ([7]; 0.2 mg/kg via tail vein) was 0 Mouse and the “Average survival times (Days)” value ([7]; 0.2 mg/kg via tail vein) was 7.7** Days. For the same compound, the “Number of mice that died … day 1” value ([7]; 1 mg/kg via tail vein) was 0 Mouse, the “Number of mice that died … day 2” value ([7]; 1 mg/kg via tail vein) was 0 Mouse and the “Number of mice that died … day 3” value ([7]; 1 mg/kg via tail vein) was 1 Mouse. For the same compound, the “Number of mice that died … day 4” value ([7]; 1 mg/kg via tail vein) was 0 Mouse, the “Number of mice that died … day 5” value ([7]; 1 mg/kg via tail vein) was 2 Mouse and the “Average survival times (Days)” value ([7]; 1 mg/kg via tail vein) was 11.1**** Days. For the same compound, the “Number of mice that died … day 1” value ([7]; 5 mg/kg via tail vein) was 1 Mouse, the “Number of mice that died … day 2” value ([7]; 5 mg/kg via tail vein) was 0 Mouse and the “Number of mice that died … day 3” value ([7]; 5 mg/kg via tail vein) was 2 Mouse. For the same compound, the “Number of mice that died … day 4” value ([7]; 5 mg/kg via tail vein) was 0 Mouse, the “Number of mice that died … day 5” value ([7]; 5 mg/kg via tail vein) was 0 Mouse and the “Average survival times (Days)” value ([7]; 5 mg/kg via tail vein) was 10.5**** Days. The “survival time of mice infected” value [7] was “superior to those of the Levofloxacin group”.
With `CC(=O)N[C@H](CCCNC(=N)N)C(=O)N[C@H](CCCCN)C(=O)N[C@H](CC(C)C)C(=O)N[C@H](CC(C)C)C(=O)N[C@H](Cc1ccc2ccccc2c1)C(=O)N[C@H](CCCNC(=N)N)C(=O)N[C@H](CC(C)C)C(=O)N[C@H](CCCCN)C(=O)N[C@H](Cc1ccc2ccccc2c1)C(=O)N[C@H](CCCNC(=N)N)C(=O)N[C@H](CCCCN)C(N)=O` [LV-20] (Ac-[dR][dK][dL][dL][d2Nal][dR][dL][dK][d2Nal][dR][dK]-NH2) the “MIC … (NRS 384)” value [1] was 1 µg/mL (≈ 0.607 µM), the “MIC MRSA” value [2] was 2 µg/mL (≈ 1.21 µM) and the “MIC CREC” value [3] was 8 µg/mL (≈ 4.86 µM). For the same compound, the “MIC CRKP” value [4] was 8 µg/mL (≈ 4.86 µM), the “MIC CRPA” value [5] was 4 µg/mL (≈ 2.43 µM) and the “MIC VRE” value [6] was 4 µg/mL (≈ 2.43 µM). The “Number of mice that died … day 1” value ([7]; 0.2 mg/kg via tail vein) was 2 Mouse, the “Number of mice that died … day 2” value ([7]; 0.2 mg/kg via tail vein) was 1 Mouse and the “Number of mice that died … day 3” value ([7]; 0.2 mg/kg via tail vein) was 2 Mouse. The “Number of mice that died … day 4” value ([7]; 0.2 mg/kg via tail vein) was 1 Mouse, the “Number of mice that died … day 5” value ([7]; 0.2 mg/kg via tail vein) was 0 Mouse and the “Average survival times (Days)” value ([7]; 0.2 mg/kg via tail vein) was 7.0** Days. The “Number of mice that died … day 1” value ([7]; 1 mg/kg via tail vein) was 1 Mouse, the “Number of mice that died … day 2” value ([7]; 1 mg/kg via tail vein) was 1 Mouse and the “Number of mice that died … day 3” value ([7]; 1 mg/kg via tail vein) was 1 Mouse. The “Number of mice that died … day 4” value ([7]; 1 mg/kg via tail vein) was 0 Mouse, the “Number of mice that died … day 5” value ([7]; 1 mg/kg via tail vein) was 0 Mouse and the “Average survival times (Days)” value ([7]; 1 mg/kg via tail vein) was 10.4**** Days. The “Number of mice that died … day 1” value ([7]; 5 mg/kg via tail vein) was 1 Mouse, the “Number of mice that died … day 2” value ([7]; 5 mg/kg via tail vein) was 2 Mouse and the “Number of mice that died … day 3” value ([7]; 5 mg/kg via tail vein) was 0 Mouse. The “Number of mice that died … day 4” value ([7]; 5 mg/kg via tail vein) was 0 Mouse, the “Number of mice that died … day 5” value ([7]; 5 mg/kg via tail vein) was 0 Mouse and the “Average survival times (Days)” value ([7]; 5 mg/kg via tail vein) was 10.3**** Days. The “survival time of mice infected” value [7] was “superior to those of the Levofloxacin group”.
